Measured values as given in US8143394B2, “Pyrido(3,2-d)pyrimidines useful for treating viral infections” (Gilead Sciences, Inc., priority 2006, dated 2012).
Like-named read-outs stand apart in the source and are kept apart here.

Legend:
HCV replicon = experiment: Anti-HCV replicon assay (EC50, luciferase readout); assay type: cell-based; details: human hepatoma Huh-7 cell line harbouring a HCV replicon, 3 days, luciferase, read-out: EC50
Outline: (§1)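 Huh-7 cells bearing HCV replicon, 6000 per well, exposed 3 days at 37 °C to 3-fold compound dilutions (0.5% DMSO final where used). EC50 from luciferase luminescence after lysis; CC50 (50% growth inhibition) from CellTiter-Glo luminescence in parallel plates.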

[1] = CC50 assay (CellTiter-Glo) in Huh-7 HCV replicon cells; assay type: cell-based, human; details: human, 50% cytostatic concentration
Outline: as §1

Huh-7 HCV replicon cells = experiment: as above; assay type: cell-based, human; details: 3 days, 50% cytostatic concentration
Outline: as §1

Compound	EC50 (HCV replicon; Hepatitis C virus, 72 h) [µM]	CC50 at 3 days [1] [µM]	EC50 (HCV replicon) [µM]	CC50 (Huh-7 HCV replicon cells) [µM]
CC(C)Oc1nc(N)nc2ccc(-c3ccc(C(=O)NC4CC4)cc3)nc12 [Example 73, 4-(2-Amino-4-isopropoxy-pyrido[3,2-d]pyrimidin-6-yl)-N-cyclopropyl-benzamide]	< 0.3	> 20		
CC(C)C(=O)Nc1ccc(-c2ccc3nc(N)nc(OCCF)c3n2)cc1 [Example 21, N-{4-[2-amino-4-(2-fluoro-ethoxy)-pyrido[3,2-d]pyrimidin-6-yl]-phenyl}-isobutyramide]	0.3 to 1	> 20		
CC(C)(N)C(=O)Nc1ccc(-c2ccc3nc(N)nc(O[C@@H]4CCOC4)c3n2)cc1F [Example 23, 2-Amino-N-{4-[2-amino-4-(tetrahydro-furan-3-yloxy)-pyrido[3,2-d]pyrimidin-6-yl]-2-fluoro-phenyl}-2-methyl-propionamide]	< 0.3	> 20		
CCOc1nc(N)nc2ccc(-c3ccc(C(=O)NCCN(C)C)cc3)nc12 [Example 63, 4-(2-Amino-4-ethoxy-pyrido[3,2-d]pyrimidin-6-yl)-N-(2-dimethylamino-ethyl)-benzamide]	< 0.3	10 to 20		
CC(C)C(=O)Nc1ccc(-c2ccc3nc(N)nc(O[C@H]4CCOC4)c3n2)cc1 [Example 27, N-{4-[2-Amino-4-(tetrahydro-furan-3-yloxy)-pyrido[3,2-d]pyrimidin-6-yl]-phenyl}-isobutyramide]	< 0.3	> 20		
4-ethoxy-6-(5-methyl-4H-[1,2,4]triazol-3-yl)-pyrido[3,2-d]pyrimidin-2-ylamine [Example 88]			0.3 to 1	10 to 20
CCC(=O)Nc1ccc(-c2ccc3nc(N)nc(NCCS(C)(=O)=O)c3n2)cc1 [Example 4, N-{4-[2-Amino-4-(2-methanesulfonyl-ethylamino)-pyrido[3,2-d]pyrimidin-6-yl]-phenyl}-propionamide]	> 1	> 20		
CS(=O)(=O)CCNc1nc(N)nc2ccc(-c3cccc(NS(=O)(=O)C4CC4)c3)nc12 [Example 2, Cyclopropanesulfonic acid {3-[2-amino-4-(2-methanesulfonyl-ethylamino)-pyrido[3,2-d]pyrimidin-6-yl]-phenyl}-amide]	0.3 to 1	> 20		
CCOc1nc(N)nc2ccc(-c3ccc(C(=O)Nc4ccc(F)cc4)cc3)nc12 [Example 86, 4-(2-Amino-4-ethoxy-pyrido[3,2-d]pyrimidin-6-yl)-N-(4-fluoro-phenyl)-benzamide]	0.3 to 1	> 20		
Nc1nc(O[C@@H]2CCOC2)c2nc(-c3ccc(N4CCCC4=O)cc3)ccc2n1 [Example 28, 1-{4-[2-Amino-4-(tetrahydro-furan-3-yloxy)-pyrido[3,2-d]pyrimidin-6-yl]-phenyl}-pyrrolidin-2-one]	< 0.3	> 20		
CCOc1nc(N)nc2ccc(-c3ccc(NC(=O)C4(O)CC4)cc3)nc12 [Example 33, 1-Hydroxy-cyclopropanecarboxylic acid [4-(2-amino-4-ethoxy-pyrido[3,2-d]pyrimidin-6-yl)-phenyl]-amide]	< 0.3	> 20		
CCOc1nc(N)nc2ccc(-c3ccc(C(=O)NC4CC4)c(Cl)c3)nc12 [Example 62, 4-(2-Amino-4-ethoxy-pyrido[3,2-d]pyrimidin-6-yl)-2-chloro-N-cyclopropyl-benzamide]	> 1	> 20		
CC(C)Oc1nc(N)nc2ccc(-c3ccc(C(=O)NC(C)(C)C)cc3)nc12 [Example 67, 4-(2-Amino-4-isopropoxy-pyrido[3,2-d]pyrimidin-6-yl)-N-tert-butyl-benzamide]	0.3 to 1	> 20		
Nc1nc(O[C@H]2CCOC2)c2nc(-c3ccc(C(=O)NCCN4CCOCC4)cc3)ccc2n1 [Example 84, 4-[2-Amino-4-(tetrahydro-furan-3-yloxy)-pyrido[3,2-d]pyrimidin-6-yl]-N-(2-morpholin-4-yl-ethyl)-benzamide]	< 0.3	> 20		
CCOc1nc(N)nc2ccc(-c3ccc(C(=O)NC4CC4)s3)nc12 [Example 89, 2-amino-4-ethoxy-6-(2-(N-(cyclopropyl)carbamoyl)-5-thiophenyl)pyrido[3,2-d]pyrimidine]	< 0.3	> 20		
CCOc1nc(N)nc2ccc(-c3ccc(Nc4nncs4)cc3)nc12 [Example 32, 4-Ethoxy-6-[4-([1,3,4]thiadiazol-2-ylamino)-phenyl]-pyrido[3,2-d]pyrimidin-2-ylamine]	0.3 to 1	> 20		
CC(C)CNC(=O)c1ccc(-c2ccc3nc(N)nc(OC(C)C)c3n2)cc1 [Example 64, 4-(2-Amino-4-isopropoxy-pyrido[3,2-d]pyrimidin-6-yl)-N-isobutyl-benzamide]	0.3 to 1	> 20		
COCCNc1nc(N)nc2ccc(-c3ccc(C(=O)NC4CC4)cc3)nc12 [Example 11, 4-[2-Amino-4-(2-methoxy-ethylamino)-pyrido[3,2-d]pyrimidin-6-yl]-N-cyclopropyl-benzamide]	< 0.3	> 20		
CC(C)N1CCC(NC(=O)c2ccc(-c3ccc4nc(N)nc(O[C@H]5CCOC5)c4n3)cc2)CC1 [Example 77, 4-[2-Amino-4-(tetrahydro-furan-3-yloxy)-pyrido[3,2-d]pyrimidin-6-yl]-N-(1-isopropyl-piperidin-4-yl)-benzamide]	> 1	> 20		
CCOc1nc(N)nc2ccc(-c3ccc(NS(=O)(=O)CC)cc3)nc12 [Example 55, ethanesulfonic acid [4-(2-amino-4-ethoxy-pyrido[3,2-d]pyrimidin-6-yl)-phenyl]-amide]	> 1	> 20		
CCOc1nc(N)nc2ccc(-c3ccc(C(=O)NC(C)(C)C)cc3)nc12 [Example 58, 4-(2-Amino-4-ethoxy-pyrido[3,2-d]pyrimidin-6-yl)-N-tert-butyl-benzamide]	> 1	> 20		
CC(C)C(=O)Nc1ccc(-c2ccc3nc(N)nc(NCCS(C)(=O)=O)c3n2)cc1 [Example 5, N-{4-[2-Amino-4-(2-methanesulfonyl-ethylamino)-pyrido[3,2-d]pyrimidin-6-yl]-phenyl}-isobutyramide]	< 0.3	> 20		
CCOc1nc(N)nc2ccc(-c3ccc(-c4nnc(C)o4)cc3)nc12 [Example 85, 4-Ethoxy-6-[4-(5-methyl-[1,3,4]oxadiazol-2-yl)-phenyl]-pyrido[3,2-d]pyrimidin-2-ylamine]	> 1	> 20		
